Consider 12 molecules from PubChem BioAssay (NCI).

What is called TGI is the concentration giving total growth inhibition. A higher TGI goes with less potent growth arrest.

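Protocol summary: plate cells (96-well), add compound at 5 concentrations, incubate 48 h, interpolate endpoints linearly. TGI: concentration producing complete growth inhibition.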

Among the test systems are SK-MEL-28 melanoma; HCT-116 colon; NCI-H23 lung; NCI-H522 lung; SR leukemia; OVCAR-3 ovarian; MCF7 breast; COLO 205 colon; RXF 393 renal; ACHN renal; T-47D breast; HT29 colon; SN12C renal; LOX IMVI melanoma; SF-268 CNS; SF-295 CNS; TK-10 renal; OVCAR-4 ovarian.
What all share (assay): DTP human tumour cell line panel, 48 h

For the molecule `COc1cc2c(cc1OS(C)(=O)=O)N=C[C@@H]1CCCN1C2=O`, the TGI with SK-MEL-28 melanoma, in the assay on HCT-116 colon, in the assay on NCI-H23 lung, in the assay on NCI-H522 lung, with SR leukemia and in the assay on OVCAR-3 ovarian was above 100 µM each time. Moreover, the TGI in the assay with MCF7 breast, in the assay with COLO 205 colon, in the assay with RXF 393 renal, in the assay with ACHN renal, with T-47D breast and with HT29 colon was above 100 µM throughout. In addition, the TGI in the assay with SN12C renal, in the assay with LOX IMVI melanoma, in the assay on SF-268 CNS, with SF-295 CNS, in the assay with TK-10 renal and with OVCAR-4 ovarian was above 100 µM each time.
Turning to `CC(NCc1c(O)ccc2c(-c3ccccc3)cc(=O)oc12)C(=O)O` (stereo unspecified), the TGI in the assay with SK-MEL-28 melanoma, with HCT-116 colon, in the assay on NCI-H23 lung, in the assay on NCI-H522 lung, in the assay with SR leukemia and in the assay with OVCAR-3 ovarian was above 100 µM in each case. In addition, the TGI in the assay with MCF7 breast, in the assay with COLO 205 colon, in the assay with RXF 393 renal, in the assay with ACHN renal, in the assay with T-47D breast and in the assay with HT29 colon was above 100 µM throughout. In addition, the TGI in the assay on SN12C renal, with LOX IMVI melanoma, in the assay on SF-268 CNS, with SF-295 CNS, in the assay with TK-10 renal and with OVCAR-4 ovarian was above 100 µM throughout.
As to `CC(=O)c1ccc(Br)cc1NC1=CC(=O)c2ncccc2C1=O`, the TGI in the assay on SK-MEL-28 melanoma was determined as 20.7 µM; in the assay on HCT-116 colon it was 4.5 µM; in the assay on NCI-H23 lung, 13 µM; in the assay on NCI-H522 lung it was 10.4 µM; with SR leukemia it was 5.97 µM; with OVCAR-3 ovarian, 4.09 µM. In addition, the TGI with MCF7 breast amounted to 11.6 µM; in the assay on COLO 205 colon it was 11.4 µM; with RXF 393 renal it was 18.7 µM; in the assay on ACHN renal it was 12.5 µM; in the assay on T-47D breast it was 9.37 µM; in the assay with HT29 colon it was 12.3 µM. Moreover, the TGI is 19.1 µM in the assay on SN12C renal; 18.9 µM with LOX IMVI melanoma; 21.7 µM in the assay with SF-268 CNS; 14.3 µM in the assay on SF-295 CNS; 31.4 µM with TK-10 renal; 11.2 µM in the assay on OVCAR-4 ovarian.
As to `Clc1ccc(Cc2nc3ccccc3o2)cc1`, the TGI in the assay on SK-MEL-28 melanoma, with HCT-116 colon, in the assay on NCI-H23 lung, in the assay on NCI-H522 lung, in the assay on SR leukemia and in the assay on OVCAR-3 ovarian was above 100 µM each time. For the same molecule, the concentration for total growth inhibition (TGI) is above 100 µM in the assay on MCF7 breast; above 100 µM with COLO 205 colon; 97.8 µM with RXF 393 renal; above 100 µM with ACHN renal; above 100 µM with T-47D breast; above 100 µM in the assay with HT29 colon. Moreover, the TGI in the assay with SN12C renal, in the assay with LOX IMVI melanoma, with SF-268 CNS, with SF-295 CNS, in the assay with TK-10 renal and with OVCAR-4 ovarian was above 100 µM each time.
With `Clc1ccc(OCC2NC3CCC2CC3)cn1` (stereo unspecified), the TGI with SK-MEL-28 melanoma was above 100 µM; with HCT-116 colon, 35.9 µM; in the assay with NCI-H23 lung, above 100 µM; in the assay on NCI-H522 lung, 40.1 µM; in the assay with SR leukemia it was 44.6 µM; in the assay with OVCAR-3 ovarian it was above 100 µM. For the same molecule, the TGI in the assay with MCF7 breast was 34.8 µM; in the assay on COLO 205 colon, 32.4 µM; with RXF 393 renal, above 100 µM; with ACHN renal, above 100 µM; in the assay on T-47D breast, above 100 µM; in the assay with HT29 colon, 33.3 µM. Also, the TGI in the assay on SN12C renal is 96.6 µM; in the assay on LOX IMVI melanoma it was 33.4 µM; in the assay with SF-268 CNS it was above 100 µM; with SF-295 CNS it was 68.8 µM; in the assay on TK-10 renal, above 100 µM; in the assay on OVCAR-4 ovarian, above 100 µM.
Consider `COC1=C(C(c2cc(OC)c(OC)c(OC)c2)c2cc3c(cc2OC)OCO3)C(=O)OC1` (stereo unspecified), for which the TGI is 87.9 µM with SK-MEL-28 melanoma; 33.5 µM in the assay on HCT-116 colon; above 80 µM with NCI-H23 lung; above 100 µM in the assay with NCI-H522 lung; above 61.7 µM in the assay with SR leukemia; above 61 µM with OVCAR-3 ovarian. For the same molecule, the TGI in the assay on MCF7 breast is above 82.3 µM; in the assay on COLO 205 colon, 53.2 µM; in the assay with RXF 393 renal, 43.6 µM; in the assay on ACHN renal, above 79.3 µM; in the assay with T-47D breast, above 100 µM; with HT29 colon it was 51.4 µM. For the same molecule, the TGI in the assay on SN12C renal is above 100 µM; in the assay on LOX IMVI melanoma, above 100 µM; in the assay with SF-268 CNS, above 79.8 µM; in the assay on SF-295 CNS, 51.4 µM; in the assay with TK-10 renal it was above 73.2 µM; in the assay on OVCAR-4 ovarian, above 95.1 µM.
`CC(C)(C)N(Cc1ccccc1)C(=O)/C=C\S(=O)c1ccccc1` (stereo unspecified): the TGI in the assay with SK-MEL-28 melanoma is 21.7 µM; in the assay with HCT-116 colon it was 7.05 µM; with NCI-H23 lung, 7.74 µM; with NCI-H522 lung it was 2.7 µM; with SR leukemia, above 29.6 µM; in the assay with OVCAR-3 ovarian it was 7.41 µM. For the same molecule, the TGI with MCF7 breast stood at 16.4 µM; in the assay on COLO 205 colon, 12.8 µM; in the assay with RXF 393 renal, 13.8 µM; in the assay with ACHN renal, 15.9 µM; with T-47D breast, 22.2 µM; in the assay with HT29 colon it was 14.3 µM. Besides, the TGI came out at 8.66 µM in the assay on SN12C renal; 5.7 µM in the assay on LOX IMVI melanoma; 6.96 µM with SF-268 CNS; 27.3 µM in the assay on SF-295 CNS; 18.5 µM in the assay on TK-10 renal; 9.25 µM with OVCAR-4 ovarian.
Take `CC(C)(C)C(=O)/C=C(\OB(F)F)C(C)(C)C`: the TGI in the assay with SK-MEL-28 melanoma, in the assay on HCT-116 colon, in the assay on NCI-H23 lung, in the assay on NCI-H522 lung, with SR leukemia and in the assay with OVCAR-3 ovarian was above 100 µM throughout. In addition, the TGI with MCF7 breast, in the assay on COLO 205 colon, with RXF 393 renal, in the assay on ACHN renal, in the assay on T-47D breast and in the assay on HT29 colon was above 100 µM in each case. The TGI in the assay on SN12C renal, in the assay on LOX IMVI melanoma, in the assay on SF-268 CNS, in the assay with SF-295 CNS, in the assay with TK-10 renal and in the assay on OVCAR-4 ovarian was above 100 µM in each case.
For `Cc1cccc(Nc2nc3ccccc3nc2NS(=O)(=O)c2ccc(N)cc2)c1`, the TGI with SK-MEL-28 melanoma is above 100 µM; in the assay with HCT-116 colon it was above 100 µM; in the assay on NCI-H23 lung, 53.3 µM; in the assay with NCI-H522 lung, above 100 µM; in the assay with SR leukemia, above 100 µM; in the assay with OVCAR-3 ovarian, above 100 µM. For the same molecule, the TGI is above 100 µM in the assay with MCF7 breast; above 100 µM in the assay with COLO 205 colon; 70.5 µM with RXF 393 renal; above 100 µM in the assay on ACHN renal; above 100 µM in the assay with T-47D breast; above 100 µM in the assay on HT29 colon. The TGI in the assay with SN12C renal is above 100 µM; with LOX IMVI melanoma, above 100 µM; in the assay on SF-268 CNS, above 100 µM; in the assay on SF-295 CNS, above 100 µM; in the assay with TK-10 renal, above 100 µM; with OVCAR-4 ovarian, 42.6 µM.
Consider `N#Cc1cc2c(cc1C#N)SCCSCCCSCCS2`, for which the TGI in the assay with SK-MEL-28 melanoma is above 100 µM; in the assay on HCT-116 colon, above 86.6 µM; with NCI-H23 lung it was 38.3 µM; in the assay with NCI-H522 lung, above 85.7 µM; in the assay with SR leukemia, above 70.3 µM; with OVCAR-3 ovarian, above 100 µM. The TGI in the assay with MCF7 breast is above 100 µM; in the assay on COLO 205 colon it was above 100 µM; with RXF 393 renal, 18.1 µM; with ACHN renal, 19.4 µM; in the assay on T-47D breast, above 80.8 µM; in the assay with HT29 colon, above 100 µM. Besides, the TGI in the assay with SN12C renal is above 100 µM; with LOX IMVI melanoma, 22.7 µM; with SF-268 CNS it was 29.9 µM; in the assay on SF-295 CNS, 18.3 µM; in the assay on TK-10 renal it was 14.3 µM; with OVCAR-4 ovarian it was above 100 µM.
In the case of `O=C1c2ccccc2-c2nnc3c(c21)Cc1ccccc1C3`, the TGI in the assay with SK-MEL-28 melanoma, in the assay with HCT-116 colon, in the assay with NCI-H23 lung, in the assay with NCI-H522 lung, with SR leukemia and in the assay on OVCAR-3 ovarian was above 10 µM in each case. The TGI in the assay with MCF7 breast, in the assay on COLO 205 colon, in the assay with RXF 393 renal, with ACHN renal, in the assay on T-47D breast and with HT29 colon was above 10 µM each time. Moreover, the TGI in the assay with SN12C renal, in the assay on LOX IMVI melanoma, with SF-268 CNS, in the assay with SF-295 CNS, in the assay with TK-10 renal and with OVCAR-4 ovarian was above 10 µM each time.
With `COc1cc2nc(-c3cccs3)nc(Nc3cccc([N+](=O)[O-])c3)c2cc1OC`, the TGI is 58 µM with SK-MEL-28 melanoma; 32.8 µM in the assay on HCT-116 colon; 28.9 µM in the assay with NCI-H23 lung; 38.1 µM with NCI-H522 lung; 34.2 µM in the assay with SR leukemia; 36.6 µM in the assay with OVCAR-3 ovarian. The TGI in the assay on MCF7 breast is 59.1 µM; in the assay on COLO 205 colon it was 54.1 µM; in the assay with RXF 393 renal it was 74.1 µM; in the assay on ACHN renal it was 38.3 µM; with T-47D breast, 38.6 µM; in the assay on HT29 colon, above 100 µM. Moreover, the TGI was 33.2 µM in the assay on SN12C renal; 45.7 µM in the assay with LOX IMVI melanoma; 43.6 µM in the assay with SF-268 CNS; 42.4 µM in the assay with SF-295 CNS; 37 µM in the assay on TK-10 renal; above 100 µM in the assay on OVCAR-4 ovarian.
